ChEMBL document CHEMBL1201862, “PubChem BioAssay data set” (2004)
Activity calls are given as the source filed them.

Key:
[1] = A Cell Based Secondary Assay To Explore Cytotoxicity of Compounds that Sensitize Mycobacterium Tuberculosis to Beta-Lactam Antibiotics.; type: functional
Large T antigen = Large T antigen (Simian virus 40, UniProt P03070); type: functional, Betapolyomavirus macacae;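 also: Confirmatory-stage PubChem screen for compounds that inhibit SV40 T antigen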
[2] = target: T1, Calpain-2 catalytic subunit (Sus scrofa, UniProt P43367); experiment: pig calpain II inhibitor potency, dose response, biochemical, fluorogenic peptide substrate (AID 1420); type: functional
T1 sequence (P43367 whole entry): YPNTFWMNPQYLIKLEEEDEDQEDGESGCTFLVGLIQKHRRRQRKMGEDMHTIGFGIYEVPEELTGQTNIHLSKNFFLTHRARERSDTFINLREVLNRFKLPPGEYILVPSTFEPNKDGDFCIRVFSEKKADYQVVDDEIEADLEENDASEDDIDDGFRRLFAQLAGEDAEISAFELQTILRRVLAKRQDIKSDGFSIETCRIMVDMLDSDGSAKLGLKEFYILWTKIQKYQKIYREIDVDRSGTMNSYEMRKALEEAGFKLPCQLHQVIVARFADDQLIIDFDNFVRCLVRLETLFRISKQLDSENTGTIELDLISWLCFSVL

[3] = inhibitors of intracellular T. cruzi replication, confirmation, NIH3T3 host cells, beta-gal luminescence (AID 2044); type: functional, cell-based;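 also: intracellular parasites grown in NIH/3T3 mouse fibroblasts as host cells; luminescent beta-galactosidase reporter signal from transgenic T. cruzi replicating inside host cells; inhibitors lower the luminescence signal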
[4] = cytotoxicity toward NIH3T3 fibroblasts, dose response, counter-screen, cell-based, ATP luminescence, mouse fibroblasts (AID 2010); type: functional;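 also: cells exposed to compound for about 90 hours before reading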
[5] = inhibitors of Vif binding to APOBEC3G peptide, primary screen, biochemical, TR-FRET, GST-Vif 1-94, biotin-A3G peptide, dose response retest (AID 1117319); type: functional;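 also: TR-FRET signal of purified GST-Vif binding a biotinylated A3G peptide; inhibitors lower the FRET signal by blocking Vif and A3G binding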
[6] = target: Heat shock protein HSP 90-alpha (Homo sapiens, UniProt P07900); type: functional, organism-based
[7] = Luminescence Cell-Based Dose Retest to Confirm Inhibitors of Cancer Stem Cells. [Related pubchem assays (depositor defined):AID2717, AID2721]; type: functional; details: Homo sapiens
[8] = target: T2, Corticotropin-releasing factor receptor 2/Corticotropin-releasing factor-binding protein (Homo sapiens, UniProt P24387+Q13324); experiment: activators of CRF receptor 2 with binding protein – uHTS hits, confirmation (AID 602473); type: functional; details: read-out: EC50_Mean
T2 sequence (Q13324 whole entry): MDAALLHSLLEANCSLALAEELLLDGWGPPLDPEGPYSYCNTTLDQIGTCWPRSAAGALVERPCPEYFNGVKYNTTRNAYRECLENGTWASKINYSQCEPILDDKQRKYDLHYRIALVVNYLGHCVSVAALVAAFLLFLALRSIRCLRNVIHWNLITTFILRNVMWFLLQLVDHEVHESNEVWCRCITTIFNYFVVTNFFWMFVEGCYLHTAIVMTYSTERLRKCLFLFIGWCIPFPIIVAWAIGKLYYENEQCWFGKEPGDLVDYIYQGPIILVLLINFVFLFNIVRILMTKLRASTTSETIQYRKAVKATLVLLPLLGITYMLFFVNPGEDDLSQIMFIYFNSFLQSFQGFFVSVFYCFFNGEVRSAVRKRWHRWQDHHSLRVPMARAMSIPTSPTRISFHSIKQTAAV
T2 sequence (P24387 whole entry): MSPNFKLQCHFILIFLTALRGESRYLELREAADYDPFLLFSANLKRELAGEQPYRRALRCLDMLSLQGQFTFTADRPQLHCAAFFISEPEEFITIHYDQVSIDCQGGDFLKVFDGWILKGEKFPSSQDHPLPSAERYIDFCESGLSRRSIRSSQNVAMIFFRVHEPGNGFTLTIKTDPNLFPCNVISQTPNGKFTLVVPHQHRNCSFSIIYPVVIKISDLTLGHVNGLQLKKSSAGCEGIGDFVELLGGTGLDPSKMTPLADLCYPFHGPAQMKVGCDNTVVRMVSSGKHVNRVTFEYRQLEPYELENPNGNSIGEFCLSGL

H9c2 = experiment: cells; type: functional, cell-based; details: Rattus norvegicus, H9c2, Myocardium;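 also: confirmatory concentration-response retest of ultra-high-throughput screening hits for modulation of myocardial damage; cell death induced by hydrogen peroxide oxidative stress; compound pretreatment for 60 min then peroxide exposure for 2 h; potency is for protecting the cells against peroxide damage rather than for killing them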
[9] = P. falciparum 3D7-ScDHODH growth inhibitors, dose response, SYBR Green, dry powder samples (AID 1159570); type: functional, cell-based;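 also: parasite growth measured after 72 hours of compound exposure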
[10] = P. falciparum Dd2 growth inhibitors, dose response, SYBR Green, cherry-picked samples (AID 1159567); type: functional, cell-based
[11] = P. falciparum Dd2 growth inhibitors, dose response, SYBR Green, dry powder samples (AID 1159566); type: functional, cell-based;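 also: potency for growth inhibition with lower SYBR green DNA signal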
[12] = P. falciparum ATP4 D1247Y mutant growth inhibitors, dose response, NITD609-resistant line, SYBR Green, dry powder (AID 1159571); type: functional, cell-based;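 also: parasites synchronized at ring stage by sorbitol before testing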
[13] = HeLa cell cytotoxicity, dose response, cytotoxicity control for MgcRacGAP inhibitor project (AID 624300); type: functional
[14] = target: T3, Rac GTPase-activating protein 1 (Homo sapiens, UniProt Q9H0H5); experiment: MgcRacGAP GTPase-activating activity inhibitors, confirmation, biochemical, ADP Hunter fluorescence, primary and confirmatory (AID 624330); type: functional
T3 sequence (Q9H0H5 whole entry): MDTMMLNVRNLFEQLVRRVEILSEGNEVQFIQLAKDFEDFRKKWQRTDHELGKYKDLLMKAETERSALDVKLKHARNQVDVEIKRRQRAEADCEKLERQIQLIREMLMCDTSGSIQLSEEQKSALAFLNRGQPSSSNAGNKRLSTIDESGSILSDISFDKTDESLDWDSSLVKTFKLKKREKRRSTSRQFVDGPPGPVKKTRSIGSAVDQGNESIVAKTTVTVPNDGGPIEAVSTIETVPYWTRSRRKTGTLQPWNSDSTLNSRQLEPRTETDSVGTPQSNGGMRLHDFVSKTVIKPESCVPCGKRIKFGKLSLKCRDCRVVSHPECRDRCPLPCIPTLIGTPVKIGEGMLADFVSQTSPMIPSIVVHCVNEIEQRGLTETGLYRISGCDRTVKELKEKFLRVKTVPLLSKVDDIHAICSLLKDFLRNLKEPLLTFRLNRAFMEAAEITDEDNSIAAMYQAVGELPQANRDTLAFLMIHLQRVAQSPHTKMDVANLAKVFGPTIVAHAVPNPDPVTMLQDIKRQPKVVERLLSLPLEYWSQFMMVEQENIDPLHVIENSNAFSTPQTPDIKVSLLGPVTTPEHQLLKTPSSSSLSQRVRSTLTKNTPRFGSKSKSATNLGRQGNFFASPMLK

[15] = P. falciparum late gametocyte killing, dose response, luminescence (AID 1117278); type: functional, cell-based;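 also: gametocytes exposed to compound for 24 hours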
[16] = Jurkat T cell cytotoxicity, dose response, cytotoxicity control for P. falciparum gametocyte viability project, luminescence (AID 1117277); type: functional, cell-based;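 also: potency reflects loss of cellular ATP meaning fewer viable cells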
HeLa = experiment: HeLa cell cytotoxicity, dose response, cytotoxicity control, 24 h, cherry-picked samples (AID 504726); type: functional, cell-based; details: Homo sapiens;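 also: potency for cytotoxicity as loss of luminescence signal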

Chain of Large T antigen (P03070 whole entry): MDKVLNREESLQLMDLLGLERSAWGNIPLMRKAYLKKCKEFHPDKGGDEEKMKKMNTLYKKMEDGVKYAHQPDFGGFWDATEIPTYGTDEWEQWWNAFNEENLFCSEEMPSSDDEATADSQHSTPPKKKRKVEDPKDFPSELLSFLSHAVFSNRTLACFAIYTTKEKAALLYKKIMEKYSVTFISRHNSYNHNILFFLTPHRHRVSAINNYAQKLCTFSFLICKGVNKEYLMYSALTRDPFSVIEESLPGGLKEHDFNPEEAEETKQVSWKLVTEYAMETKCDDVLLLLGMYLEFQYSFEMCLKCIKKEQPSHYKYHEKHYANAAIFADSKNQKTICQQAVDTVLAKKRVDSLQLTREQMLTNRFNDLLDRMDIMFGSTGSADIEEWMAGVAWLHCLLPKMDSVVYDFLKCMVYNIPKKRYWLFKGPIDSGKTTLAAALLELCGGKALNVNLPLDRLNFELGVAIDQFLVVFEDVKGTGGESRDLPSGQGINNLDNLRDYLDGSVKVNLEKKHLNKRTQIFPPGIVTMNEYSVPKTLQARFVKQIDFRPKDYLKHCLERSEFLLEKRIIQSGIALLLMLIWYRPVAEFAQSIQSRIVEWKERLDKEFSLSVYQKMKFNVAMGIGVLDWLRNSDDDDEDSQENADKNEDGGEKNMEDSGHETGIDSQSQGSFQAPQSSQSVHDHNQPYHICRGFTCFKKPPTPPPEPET

CC(=O)Nc1nonc1-c1nc2ccccc2n1CCC(C)C
CC50 [1]: > 40 µM (active)

COc1cc(-c2nc3cnccn3c2Nc2ccccc2)ccc1O
IC50 (Large T antigen): 5.05 µM (active)

CCS(=O)(=O)NCC(c1cccnc1)N1CCN(c2ccc(OC)cc2)CC1 (stereo unspecified)
IC50 [2]: 24.7 µM (not active)
EC50 [3]: 0.916 µM (active)
EC50 [4]: 22 µM (active)

CCOc1cccc(SCc2noc(C(=O)NCC3CCCO3)c2C(=O)O)c1 (stereo unspecified)
IC50 [5]: > 100 µM (active)

Cc1cc2ccccn2c1C(=O)c1ccc([N+](=O)[O-])o1
CC50 [1]: 8.69 µM (active)
AC50 [6]: 3.38 µM (active)
AC50 [7]: 2.84 µM (active)

CC(C)(C)/N=C/c1c(O)ccc2oc3c(c12)CCCC3
EC50 [8]: > 53 µM (inactive)
IC50 (H9c2): > 79 µM (inactive)

O=C(CCN1CCOCC1)c1ccc(N2CCCCC2)cc1
CC50 [1]: 29.2 µM (active)

O=C1NC(=O)N(Cc2ccc(F)cc2)C(=O)/C1=C\c1ccoc1
IC50 (Large T antigen): 56.4 µM (active)

C[C@@H]1CN([C@H](C)CO)C(=O)c2cc(/C=C/c3ccccc3)cnc2O[C@H]1CN(C)C(=O)NC1CCCCC1
AC50 [9]: 2.03 µM (active)
AC50 [10]: 2.73 µM (active)
AC50 [11]: 1.06 µM (active)
AC50 [12]: 1.76 µM (active)

Cc1cc(Cl)cc(C)c1OCCOCCNCc1ccccc1
CC50 [13]: 100 µM (active)
IC50 [14]: 128 µM (active)

Cc1cc(C(=O)NCc2cccnc2)no1
IC50 [15]: > 109 µM (inactive)
IC50 [16]: > 83.3 µM (inactive)

N#C/C(=C\c1ccc(-c2ccccc2[N+](=O)[O-])o1)C(N)=O
AC50 (HeLa): 83.5 µM (active)

COc1ccc(CN2CCN(Cc3ccccc3)CC2)c(OC)c1
IC50 [15]: > 109 µM (inactive)
IC50 [16]: > 83.3 µM (inactive)

CC1=[N+](C)N(c2ccccc2)C(=O)C1/N=C/C=C/c1ccccc1 (stereo unspecified)
AC50 (HeLa): 308 µM (active)

CCC(CC)C(=O)Nc1ccc(S(=O)(=O)Nc2nccs2)cc1
IC50 [2]: 11.7 µM (not active)
